Article PMC5218480 (PLoS ONE, 2017)

System: MV-4-11 cells
Assay: Gene expression microarray analysis (Affymetrix PrimeView) and GSEA
Format: cell-based, human
Design: RFU PODN (11730768_x_at) / Fold change /veh PODN (11730768_x_at) / RFU LINC00158 (11744669_a_at) / Fold change /veh LINC00158 (11744669_a_at) / RFU DUSP10 (11751237_a_at) / Fold change /veh DUSP10 (11751237_a_at) / RFU ID3 (11757404_x_at) / Fold change /veh ID3 (11757404_x_at) / RFU PLEKHG5 (11737974_s_at) / Fold change /veh PLEKHG5 (11737974_s_at) / RFU LRRC4B (11730491_at) / Fold change /veh LRRC4B (11730491_at) / RFU GIMAP4 (11747438_a_at) / Fold change /veh GIMAP4 (11747438_a_at) / RFU KRT8 (11758183_x_at) / Fold change /veh KRT8 (11758183_x_at) / RFU CNN1 (11734310_a_at) / Fold change /veh CNN1 (11734310_a_at) / RFU VPS37D (11726825_at) / Fold change /veh VPS37D (11726825_at) / RFU C10orf10 (11716522_x_at) / Fold change /veh C10orf10 (11716522_x_at) / RFU KIR2DL2 /// KIR2DL4 /// KIR2DL5A /// KIR2DL5B /// KIR2DS1 /// KIR2DS2 /// KIR2DS3 /// KIR2DS4 /// KIR3DL3 /// KIR3DL3 /// KIR3DS1 (11738374_at) / Fold change /veh KIR2DL2 /// KIR2DL4 /// KIR2DL5A /// KIR2DL5B /// KIR2DS1 /// KIR2DS2 /// KIR2DS3 /// KIR2DS4 /// KIR3DL3 /// KIR3DL3 /// KIR3DS1 (11738374_at) / RFU C1QL1 (11718748_at) / Fold change /veh C1QL1 (11718748_at) / RFU TMPRSS4 (11747572_a_at) / Fold change /veh TMPRSS4 (11747572_a_at) / RFU HAMP (11756126_x_at) / Fold change /veh HAMP (11756126_x_at) / RFU RNFT2 (11725882_a_at) / Fold change /veh RNFT2 (11725882_a_at) / RFU NR4A2 (11747474_a_at) / Fold change /veh NR4A2 (11747474_a_at) / RFU ABCC12 (11746883_a_at) / Fold change /veh ABCC12 (11746883_a_at) / RFU TMEM136 (11760407_x_at) / Fold change /veh TMEM136 (11760407_x_at) / RFU CLDN22 /// WWC2 (11732394_at) / Fold change /veh CLDN22 /// WWC2 (11732394_at) / RFU HLA-DPB1 (11760878_x_at) / Fold change /veh HLA-DPB1 (11760878_x_at) / RFU SPINT1 (11716480_a_at) / Fold change /veh SPINT1 (11716480_a_at) / RFU GAP43 (11754022_s_at) / Fold change /veh GAP43 (11754022_s_at) / RFU A4GNT (11735810_at) / Fold change /veh A4GNT (11735810_at) / RFU PRB3 (11715151_x_at) / Fold change /veh PRB3 (11715151_x_at) / RFU TUBB4B (11761932_at) / Fold change /veh TUBB4B (11761932_at) / RFU CAPN14 (11732068_a_at) / Fold change /veh CAPN14 (11732068_a_at) / RFU TMCC2 (11721928_a_at) / Fold change /veh TMCC2 (11721928_a_at) / RFU IRGQ (11745062_a_at) / Fold change /veh IRGQ (11745062_a_at) / RFU FAM174B (11720279_a_at) / Fold change /veh FAM174B (11720279_a_at) / RFU TMPRSS4 (11748680_a_at) / Fold change /veh TMPRSS4 (11748680_a_at) / RFU FAM212B (11763350_a_at) / Fold change /veh FAM212B (11763350_a_at) / RFU PLEKHG5 (11743358_a_at) / Fold change /veh PLEKHG5 (11743358_a_at) / RFU ZSCAN30 (11745921_a_at) / Fold change /veh ZSCAN30 (11745921_a_at) / RFU CMKLR1 (11741424_a_at) / Fold change /veh CMKLR1 (11741424_a_at) / RFU LOC101060620 /// MAPK8IP1 (11723275_at) / Fold change /veh LOC101060620 /// MAPK8IP1 (11723275_at) / RFU SPTSSB (11747773_x_at) / Fold change /veh SPTSSB (11747773_x_at) / RFU PRSS12 (11739890_at) / Fold change /veh PRSS12 (11739890_at) / RFU BIN1 (11741810_x_at) / Fold change /veh BIN1 (11741810_x_at) / RFU WNT11 (11732464_a_at) / Fold change /veh WNT11 (11732464_a_at) / RFU C10orf10 (11716521_a_at) / Fold change /veh C10orf10 (11716521_a_at) / RFU C5orf56 (11738089_at) / Fold change /veh C5orf56 (11738089_at) / RFU CYB561 (11721691_x_at) / Fold change /veh CYB561 (11721691_x_at) / RFU ANKRD19P (11752326_a_at) / Fold change /veh ANKRD19P (11752326_a_at) / RFU OR2T12 /// OR2T33 /// OR2T8 (11738714_s_at) / Fold change /veh OR2T12 /// OR2T33 /// OR2T8 (11738714_s_at) / RFU VCAN (11748164_a_at) / Fold change /veh VCAN (11748164_a_at) / RFU JSRP1 (11732532_at) / Fold change /veh JSRP1 (11732532_at) / RFU KRTAP10-11 (11738290_x_at) / Fold change /veh KRTAP10-11 (11738290_x_at) / RFU MYO3A (11730013_a_at) / Fold change /veh MYO3A (11730013_a_at) / RFU EBF3 (11725865_a_at) / Fold change /veh EBF3 (11725865_a_at) / RFU CAMK2N1 (11719241_x_at) / Fold change /veh CAMK2N1 (11719241_x_at) / RFU C5orf56 (11738088_a_at) / Fold change /veh C5orf56 (11738088_a_at) / RFU OLFML3 (11715873_a_at) / Fold change /veh OLFML3 (11715873_a_at) / RFU LOC100653217 /// NTM (11731650_a_at) / Fold change /veh LOC100653217 /// NTM (11731650_a_at) / RFU MAPK11 (11762145_a_at) / Fold change /veh MAPK11 (11762145_a_at) / RFU FIZ1 (11724087_x_at) / Fold change /veh FIZ1 (11724087_x_at) / RFU OASL (11726364_x_at) / Fold change /veh OASL (11726364_x_at) / RFU SOX15 (11748057_x_at) / Fold change /veh SOX15 (11748057_x_at) / RFU CD79A (11719716_a_at) / Fold change /veh CD79A (11719716_a_at) / RFU HIST1H1D (11736915_at) / Fold change /veh HIST1H1D (11736915_at) / RFU CASKIN2 (11723855_a_at) / Fold change /veh CASKIN2 (11723855_a_at) / RFU LOC730098 (11760151_x_at) / Fold change /veh LOC730098 (11760151_x_at) / RFU OR4N2 (11742367_at) / Fold change /veh OR4N2 (11742367_at) / RFU PRRT2 (11749266_a_at) / Fold change /veh PRRT2 (11749266_a_at) / RFU SNX32 (11753110_a_at) / Fold change /veh SNX32 (11753110_a_at) / RFU CDHR5 (11726645_a_at) / Fold change /veh CDHR5 (11726645_a_at) / RFU RCAN1 (11760418_a_at) / Fold change /veh RCAN1 (11760418_a_at) / RFU FAM167A (11723789_a_at) / Fold change /veh FAM167A (11723789_a_at) / RFU FAM26E (11764081_at) / Fold change /veh FAM26E (11764081_at) / RFU ISYNA1 (11749810_s_at) / Fold change /veh ISYNA1 (11749810_s_at) / RFU ACY1 (11761880_at) / Fold change /veh ACY1 (11761880_at) / RFU 11764098_at / Fold change /veh 11764098_at / RFU SAMD14 (11745864_x_at) / Fold change /veh SAMD14 (11745864_x_at) / RFU NPB (11741838_a_at) / Fold change /veh NPB (11741838_a_at) / RFU TMPRSS6 (11731388_a_at) / Fold change /veh TMPRSS6 (11731388_a_at) / RFU KRTAP10-2 (11738614_at) / Fold change /veh KRTAP10-2 (11738614_at) / RFU ARHGAP8 /// PRR5-ARHGAP8 (11727945_x_at) / Fold change /veh ARHGAP8 /// PRR5-ARHGAP8 (11727945_x_at) / RFU KRTAP5-7 /// NADSYN1 (11734609_at) / Fold change /veh KRTAP5-7 /// NADSYN1 (11734609_at) / RFU RASL12 (11751679_a_at) / Fold change /veh RASL12 (11751679_a_at) / RFU CDKN2B (11736163_a_at) / Fold change /veh CDKN2B (11736163_a_at) / RFU PRF1 (11729649_at) / Fold change /veh PRF1 (11729649_at) / RFU, ZNF638 /// ZNF638-IT1 / Fold change vs veh, ZNF638 /// ZNF638-IT1 / RFU, PANK3 / Fold change vs veh, PANK3 / RFU, SH3YL1 / Fold change vs veh, SH3YL1 / RFU, ZEB2 / Fold change vs veh, ZEB2 / RFU, NRIP1 / Fold change vs veh, NRIP1 / RFU, PTTG1IP / Fold change vs veh, PTTG1IP / RFU, CAPN2 / Fold change vs veh, CAPN2 / RFU, MED14 / Fold change vs veh, MED14 / RFU, SNORA58 / Fold change vs veh, SNORA58 / RFU, C1orf63 / Fold change vs veh, C1orf63 / RFU, LRRFIP1 / Fold change vs veh, LRRFIP1 / RFU, NDUFAF7 / Fold change vs veh, NDUFAF7 / RFU, SLC12A2 / Fold change vs veh, SLC12A2 / RFU, IBTK / Fold change vs veh, IBTK / RFU, ESF1 / Fold change vs veh, ESF1 / Fold change vs veh, TMEM50B / RFU, TAOK1 / Fold change vs veh, TAOK1 / RFU, ACBD3 / Fold change vs veh, ACBD3 / RFU, TMA16 / Fold change vs veh, TMA16 / RFU, RWDD3 / Fold change vs veh, RWDD3 / RFU, BCAT1 / Fold change vs veh, BCAT1 / RFU, EDEM3 / Fold change vs veh, EDEM3 / RFU, TMEM33 / Fold change vs veh, TMEM33 / RFU, WDR75 / Fold change vs veh, WDR75 / RFU, AHCTF1 / Fold change vs veh, AHCTF1 / RFU, TFRC / Fold change vs veh, TFRC / RFU, ZDHHC17 / Fold change vs veh, ZDHHC17 / RFU, NOM1 / Fold change vs veh, NOM1 / RFU, ARL8B / Fold change vs veh, ARL8B / RFU, ZBTB11 / Fold change vs veh, ZBTB11 / RFU, TAMM41 / Fold change vs veh, TAMM41 / RFU, KIAA1704 /// LOC100996395 / Fold change vs veh, KIAA1704 /// LOC100996395 / RFU, ING1 / Fold change vs veh, ING1 / RFU, TRMT61B / Fold change vs veh, TRMT61B / RFU, FUBP3 / Fold change vs veh, FUBP3 / RFU, TP53 / Fold change vs veh, TP53 / RFU, TNKS2 / Fold change vs veh, TNKS2 / RFU, ZFP14 / Fold change vs veh, ZFP14 / RFU, ACTR2 / Fold change vs veh, ACTR2 / RFU, PPP3R1 / Fold change vs veh, PPP3R1 / RFU, PIK3R1 / Fold change vs veh, PIK3R1 / RFU, HNRNPA1 / Fold change vs veh, HNRNPA1 / RFU, RNF170 / Fold change vs veh, RNF170 / RFU, ZNF28 / Fold change vs veh, ZNF28 / RFU, RNGTT / Fold change vs veh, RNGTT / RFU, OGT / Fold change vs veh, OGT / RFU, BRD1 / Fold change vs veh, BRD1 / RFU, MARS / Fold change vs veh, MARS / RFU, ZNF655 / Fold change vs veh, ZNF655 / RFU, FAHD1 / Fold change vs veh, FAHD1 / RFU, BDP1 / Fold change vs veh, BDP1 / RFU, LRRCC1 / Fold change vs veh, LRRCC1 / RFU, ARID1A / Fold change vs veh, ARID1A / RFU, ZNF146 / Fold change vs veh, ZNF146 / RFU, ZNF330 / Fold change vs veh, ZNF330 / RFU, GPN3 / Fold change vs veh, GPN3 / RFU, C9orf123 / Fold change vs veh, C9orf123 / RFU, N4BP2L2 / Fold change vs veh, N4BP2L2 / RFU, ARFIP1 / Fold change vs veh, ARFIP1 / RFU, FAM179B / Fold change vs veh, FAM179B / RFU, BCL10 / Fold change vs veh, BCL10 / RFU, UHRF1BP1L / Fold change vs veh, UHRF1BP1L / RFU, BET1 / Fold change vs veh, BET1 / RFU, CNOT2 / Fold change vs veh, CNOT2 / RFU, ZNF268 / Fold change vs veh, ZNF268 / Fold change vs veh, ZNF507 / RFU, DGCR2 / Fold change vs veh, DGCR2 / RFU, WDSUB1 / Fold change vs veh, WDSUB1 / Fold change vs veh, HSP90B1 /// MIR3652 / RFU, ADSS / Fold change vs veh, ADSS / RFU, GK / Fold change vs veh, GK / RFU, ZNF148 / Fold change vs veh, ZNF148 / RFU, TAF9 / Fold change vs veh, TAF9 / RFU, SLC1A5 / Fold change vs veh, SLC1A5 / RFU, SLMO2 / Fold change vs veh, SLMO2 / RFU, ABCC4 / Fold change vs veh, ABCC4 / RFU, LOC101060439 /// RAP1B / Fold change vs veh, LOC101060439 /// RAP1B / RFU, RFX7 / Fold change vs veh, RFX7 / RFU, GTPBP10 / Fold change vs veh, GTPBP10 / RFU, CNEP1R1 / Fold change vs veh, CNEP1R1 / RFU, BIVM-ERCC5 /// ERCC5 / Fold change vs veh, BIVM-ERCC5 /// ERCC5 / RFU, ILF3 / Fold change vs veh, ILF3 / RFU 11762660_at / Fold change /veh 11762660_at / RFU VCAN (11757783_s_at) / Fold change /veh VCAN (11757783_s_at) / RFU DDX43 (11728927_at) / Fold change /veh DDX43 (11728927_at) / RFU KRT8 (11758188_x_at) / Fold change /veh KRT8 (11758188_x_at) / RFU NKD1 (11759106_at) / Fold change /veh NKD1 (11759106_at) / RFU SRD5A1 (11742802_a_at) / Fold change /veh SRD5A1 (11742802_a_at) / RFU TPSAB1 /// TPSB2 (11721975_s_at) / Fold change /veh TPSAB1 /// TPSB2 (11721975_s_at) / RFU GSTM3 (11746129_a_at) / Fold change /veh GSTM3 (11746129_a_at) / RFU IL23R (11737362_x_at) / Fold change /veh IL23R (11737362_x_at) / RFU TMEM51 (11727254_a_at) / Fold change /veh TMEM51 (11727254_a_at) / RFU PIWIL2 (11732686_x_at) / Fold change /veh PIWIL2 (11732686_x_at) / RFU ORM1 (11744905_x_at) / Fold change /veh ORM1 (11744905_x_at) / RFU CCDC152 (11743942_at) / Fold change /veh CCDC152 (11743942_at) / RFU ECM1 (11717891_a_at) / Fold change /veh ECM1 (11717891_a_at) / RFU IL23R (11748794_a_at) / Fold change /veh IL23R (11748794_a_at) / RFU TNFAIP8L3 (11732012_x_at) / Fold change /veh TNFAIP8L3 (11732012_x_at) / RFU MBOAT4 (11741988_at) / Fold change /veh MBOAT4 (11741988_at) / RFU 11764193_at / Fold change /veh 11764193_at / RFU TMEM53 (11763286_at) / Fold change /veh TMEM53 (11763286_at) / RFU MAGEB2 (11727129_at) / Fold change /veh MAGEB2 (11727129_at) / RFU TMEM200A (11744735_a_at) / Fold change /veh TMEM200A (11744735_a_at) / RFU CCDC152 (11751479_a_at) / Fold change /veh CCDC152 (11751479_a_at) / RFU FAM211A (11726209_a_at) / Fold change /veh FAM211A (11726209_a_at) / RFU RGS16 (11746705_a_at) / Fold change /veh RGS16 (11746705_a_at) / RFU VCAN (11755009_s_at) / Fold change /veh VCAN (11755009_s_at) / RFU RHOB (11743442_s_at) / Fold change /veh RHOB (11743442_s_at) / RFU RGS16 (11720943_a_at) / Fold change /veh RGS16 (11720943_a_at) / RFU RGS16 (11720944_at) / Fold change /veh RGS16 (11720944_at) / RFU, VPS4B / Fold change vs veh, VPS4B / RFU, CREB1 / Fold change vs veh, CREB1 / RFU, DNAJC13 / Fold change vs veh, DNAJC13 / RFU, GNAQ / Fold change vs veh, GNAQ / RFU, CDK5R1 / Fold change vs veh, CDK5R1 / RFU, ZRANB3 / Fold change vs veh, ZRANB3 / RFU, CUL4A / Fold change vs veh, CUL4A / RFU, CCNY / Fold change vs veh, CCNY / RFU, UFL1 / Fold change vs veh, UFL1 / RFU, COG3 / Fold change vs veh, COG3 / RFU, DIAPH2 / Fold change vs veh, DIAPH2 / RFU, SKA2 / Fold change vs veh, SKA2 / RFU, AFF3 / Fold change vs veh, AFF3 / RFU, LMF1 / Fold change vs veh, LMF1 / RFU, IPO11 / Fold change vs veh, IPO11 / RFU, DFFB / Fold change vs veh, DFFB / RFU, FOXP1 / Fold change vs veh, FOXP1 / RFU, CARD8 / Fold change vs veh, CARD8 / RFU, STRN3 / Fold change vs veh, STRN3 / RFU, ADK / Fold change vs veh, ADK / RFU, RASSF2 / Fold change vs veh, RASSF2 / RFU, WIPF1 / Fold change vs veh, WIPF1 / RFU, LARP1B / Fold change vs veh, LARP1B / RFU, RASA1 / Fold change vs veh, RASA1 / RFU, RB1 / Fold change vs veh, RB1 / RFU, PPFIA1 / Fold change vs veh, PPFIA1 / RFU, MAT2A / Fold change vs veh, MAT2A / RFU, CCT5 / Fold change vs veh, CCT5 / RFU, WDR92 / Fold change vs veh, WDR92 / RFU, CUX1 / Fold change vs veh, CUX1 / RFU, TTC7A / Fold change vs veh, TTC7A / RFU, TMEM135 / Fold change vs veh, TMEM135 / RFU, DEPTOR / Fold change vs veh, DEPTOR / RFU, CPM / Fold change vs veh, CPM / RFU, DNAJB6 / Fold change vs veh, DNAJB6 / RFU, CACNA2D3 / Fold change vs veh, CACNA2D3 / RFU, DTX4 / Fold change vs veh, DTX4 / RFU, TFCP2 / Fold change vs veh, TFCP2 / RFU, GMCL1 /// GMCL1P1 / Fold change vs veh, GMCL1 /// GMCL1P1 / RFU, AEBP2 / Fold change vs veh, AEBP2 / RFU, SNHG1 /// SNORD22 /// SNORD25 /// SNORD26 /// SNORD27 /// SNORD28 /// SNORD29 /// SNORD31 / Fold change vs veh, SNHG1 /// SNORD22 /// SNORD25 /// SNORD26 /// SNORD27 /// SNORD28 /// SNORD29 /// SNORD31 / Fold change (Aza/veh), C12orf56 (ProbeSet 11735607_a_at) / Fold change (ACY-1035/veh), C12orf56 (ProbeSet 11735607_a_at) / Fold change (Aza/veh), FGFR1OP (ProbeSet 11751329_s_at) / Fold change (ACY-1035/veh), FGFR1OP (ProbeSet 11751329_s_at) / Fold change (Aza/veh), VPS36 (ProbeSet 11739960_a_at) / Fold change (ACY-1035/veh), VPS36 (ProbeSet 11739960_a_at) / RFU SYPL1 (11715823_x_at) / Fold change /veh SYPL1 (11715823_x_at) / RFU IGFBP7 (11715501_s_at) / Fold change /veh IGFBP7 (11715501_s_at) / RFU REEP3 (11722064_at) / Fold change /veh REEP3 (11722064_at) / RFU IGLL1 (11728026_x_at) / Fold change /veh IGLL1 (11728026_x_at): dose or concentration left out as unconfirmed
Conditions: ProbeSet 11743286_at; LIST D

## Nc1ccc(-c2cccs2)cc1NC(=O)c1ccc2c(c1)cc(C1CC1)n2CCN1CCOCC1 [ACY-1035]
  RFU, DTX4: 268.88 RFU
